Test [1] concerns BM3 T cells. The test can be described thus: Ex vivo T cell suppression assays with sorted Tregs from treated mice. Format: in vivo, mouse. How it is done:
CpG Oligonucleotides. CpG-ODNs (CpG no. 1826, […]; (SEQ ID NO:4) and sequence matched non-CpG-B no. 2138, […] (SEQ ID NO:5)) with fully phosphorothioate backbones were purchased from Coley Pharmaceuticals. Mice were injected with relatively high doses of ODNs (50 μg/mouse, i/v) as described (Mellor et al. J Immunol 2005; 175:5601-5605).
1-methyl-[D]-tryptophan (1 mT). 1 mT (catalog number 45, 248-3, Sigma) was prepared as a 20 mM stock solution in 0.1 N NaOH, adjusted to pH 7.4, and stored at −20° C. protected from light. For in vitro use, 1 mT was added to MLRs to a final concentration of 100 μM. For in vivo treatment, slow-release polymer pellets (*5 mg/day) containing 1 mT or vehicle alone were inserted under the dorsal skin as described (Munn et al. Science 1998; 281:1191-1193) 24 hours before CpG treatment.
Preparative flow cytometry to sort CD4+ T cells subsets. CD4+ T cell subsets were purified using a Mo-Flo cytometer as described (Mellor et al. J Immunol 2005; 175:5601-5605; Munn et al. Immunity 2005; 22:1-10).
Ex vivo T cell suppression assays. Suppression assays were performed by adding sorted CD4+ cells to T cell proliferation assays (72 hour thymidine incorporation assays) containing responder H-2K^b-specific splenocytes from BM3 TCR transgenic mice (nylon-wool enriched) and CD11c+ splenocytes (AutoMacs enriched) from CBK (H-2K^b transgenic CBA) mice prepared as described (Mellor et al. J Immunol 2005; 175:5601-5605).

Test [2] has as its system primed CD4+ T cells / naive CD4+ T cells. The test can be described thus: MLR assays of function of CpG-PDC or CpG-B cell primed CD4+ T cells. The test is classed as cell-based, human. As for the experimental part:
In vitro priming of naive CD4+ T cells. CD4+CD45RA+ naive T cells were primed with allogeneic PDCs or irradiated B cells (30 Gy) at a 10:1 ratio (e.g., 2×10^6 naive CD4+ T cells plus 2×105 PDCs per well in 24-well plates) with ODN 2216 or ODN 2006 present in RPMI 1640 medium supplemented with 10% human AB serum. 1 MT and/or KYN were added into CpG ODN-PDC or CpG ODN-B cell mediated naive CD4+ T cell priming cultures as indicated. In some experiments, blocking Abs against CD80, CD86, HLA-DR or the control IgG Ab (R&D Systems, Minneapolis, Minn.) were added to CpG-PDC-mediated naive CD4+ T cell priming cultures at a final Ab concentration ranging from 0.1 to 10 μg/ml. After 7 days, primed T cells in cultures were harvested, assessed for their surface phenotype, intracellular Foxp3 expression, and their function in MLR assays.
MLR assays. […] In all T cell proliferation assays, plates were incubated at 37° C. for 5 days and pulsed with 1 μCi of 3H-thymidine per well for the last 18 hours before harvesting. All determinations were carried out in triplicate and 3H-thymidine incorporation was determined.

The test system of test [3] is PDCs. The test can be described thus: Surface expression of CD80, CD86, HLA-DR on PDCs (flow cytometry). The test is classed as cell-based, human. The settings on record: 1MT added to priming MLRs with CpG ODN. From the text: PDC, B, and T cell isolation. Human PBMC were isolated under IRE-approved protocols from apheresis products of healthy blood donors (Memorial Blood Centers of Minnesota, Minneapolis, Minn.) by Ficoll-Paque density gradient centrifugation. Plasmascytoid dendritic cells (PDCs) were isolated from PBMC using BDCA-4 cell isolation kits and the MACS system, followed by staining and sorting to collect purified Lin-CD11c-CD123+ PDCs, as reported previously (Moseman et al., J Immunol 2004; 173:4433-4442). CD4+CD45RA+ naïve T cells were isolated from PBMC using CD4 T cell isolation kits followed by positive selection with CD45RA microbeads. The purity of naïve CD4+ T cells was greater than 95% for CD4+CD45RA+ expression and less than 0.5% for CD25+ expression. B cells were isolated from PBMC with CD19 microbeads and the MACS system to greater than 98% purity of CD19+ B cells. All cell isolations kits and microbeads were from Miltenyi Biotec (Bergisch Gladbach, Germany).
Flow Cytometry. Fluorescent antibodies (Abs) against human CD3, CD4, CD11c, CD19, CD25, CD40, CD45, CD45RA, CD45RO, CD80, CD86, CD123, HLA-DR, lineage (Lin) markers, and isotype control Abs were from BD Biosciences (San Diego, Calif.). […] Mean fluorescence intensity (MFI) and positive cell percentages of stained cells were determined by flow cytometry.
(In general: In flow cytometry, cells or beads pass a laser one at a time.)

“Also recorded” adds a separate entry of the source.

As for `Cn1cc(C[C@@H](N)C(=O)O)c2ccccc21` [Inhibitor 1MT, 1-methyl-D-tryptophan], the “reversal of Treg-mediated suppression by IDO inhibitor added to parallel cultures” value in test [1] (100 μM in culture, Tregs from CpG-treated mice) is “did not reverse suppression”. For the same compound, in test [1] (slow-release pellets 24 hours before CpG, IDO-WT mice), the “CpG-mediated stimulation of Treg suppressive functions, IDO inhibitor given to Treg donor mice” value is given as “prevented CpG-mediated stimulation of Treg suppressive functions”. Further, the “T cell responses after priming with CpG ODN-activated B cells (control for nonspecific effects)” value in test [2] (1MT added to priming MLRs with IDO-negative B cells) is on record as “no nonspecific effect”. Moreover, in test [2] (1MT present during priming), the “anergy/hyporesponsiveness of primed CD4+ T cells to subsequent alloantigen stimulation” value was “prevented CD4+ T cells from becoming anergic/hyporesponsive” and the “suppressor/regulatory activity of PDC-primed T cells on proliferation of naive CD4+ T cells in MLR” value was “blocked the generation of suppressor/regulatory activity; also recorded: markedly reduced”. Moreover, the “expression of cell surface maturation markers by PDCs (CD80, CD86, HLA-DR)” value in test [3] is reported as “insignificant effects”.

(Values after patent publication US20120142750A1, “INDOLEAMINE 2,3-DIOXYGENASE PATHWAYS IN THE GENERATION OF REGULATORY T CELLS” (Regents of the University of Minnesota, priority 2005, published 2012).)
